For 29 compounds, IC50 results are on record in BindingDB's records for patent US8962648 (Oncotherapy Science, 2015).

“And” between values parts separate entries of the source, which are not always exact repeats. Equal entries are not always repeated.

For this assay, the target named is T1, Lymphokine-activated killer T-cell-originated protein kinase (Homo sapiens, UniProt Q96KB5).
T1 sequence (Q96KB5 whole entry): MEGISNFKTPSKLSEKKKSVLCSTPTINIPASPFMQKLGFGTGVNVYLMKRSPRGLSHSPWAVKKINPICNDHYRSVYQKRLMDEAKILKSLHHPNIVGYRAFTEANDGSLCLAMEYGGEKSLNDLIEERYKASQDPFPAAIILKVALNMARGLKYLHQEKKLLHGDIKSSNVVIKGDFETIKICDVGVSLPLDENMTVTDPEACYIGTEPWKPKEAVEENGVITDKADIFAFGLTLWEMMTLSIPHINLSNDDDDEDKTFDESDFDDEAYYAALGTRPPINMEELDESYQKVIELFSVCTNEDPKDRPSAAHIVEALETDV
Nature of the assay: Kinase Assay. The following applies: pH 7.4; 25 °C. On the procedure: PBK activity was determined in the presence or absence of compounds using fluorescein isothiocyanate-labeled (FITC-labeled) histone H3 peptide as a substrate. […] The serially diluted compounds, 0.8 ng/micro-L PBK (Carna Biosciences) and 100 nM FITC-labeled histone H3 peptide were reacted in a reaction buffer (20 mM HEPES, 0.01% Tween-20, 0.3 mM MgCl2, 2 mM dithiothreitol, 50 micro-M ATP, pH 7.4) at room temperature for 1 hour. The reaction was stopped by the addition of three fold assay volume of progressive binding solution. Following 0.5 hour incubation at room temperature.
`CCC(CN)c1ccc(-c2c(OC)cc(C)c3[nH]c(=O)c4sccc4c23)cc1` (centres undefined) [US8962648, 1277]: the IC50 stood at 63 nM. This counts as double-digit nanomolar.
With `Cc1cc2c(s1)c(=O)[nH]c1ccc(O)c(-c3ccc(CN)cc3)c12` [US8962648, 95] the figure was 4.4 nM.
For `CC(=O)Oc1ccc2[nH]c(=O)c3sccc3c2c1-c1ccc(C(C)N)cc1` (centres undefined) [US8962648, 1099] the value was 33 nM; for `COc1ccc2[nH]c(=O)c3sccc3c2c1-c1ccc(C(C)CN)cc1` (centres undefined) [US8962648, 373], 3.2 nM.
With `CCN(CC)C(C)c1ccc(-c2c(O)ccc3[nH]c(=O)c4sccc4c23)cc1` (centres undefined) [US8962648, 196] the figure was 4.5 nM.
`CC(C)(N)c1ccc(-c2c(O)ccc3[nH]c(=O)c4sccc4c23)cc1` [US8962648, 319] had a half-maximal inhibitory concentration (IC50) of 0.43 nM.
For `CNCc1ccc(-c2c(O)ccc3[nH]c(=O)c4sccc4c23)cc1` [US8962648, 187] the value was 0.9 nM; for `COc1ccc2[nH]c(=O)c3sccc3c2c1-c1ccc(CCN)c(F)c1` [US8962648, 265], 3.8 nM; for `CCC(CN)c1ccc(-c2c(O)cc(Cl)c3[nH]c(=O)c4sccc4c23)cc1` (centres undefined) [US8962648, 1312], 19 nM.
`COc1ccc2[nH]c(=O)c3sccc3c2c1-c1ccc(CN(C)C)cc1` [US8962648, 164] showed a 50% inhibitory concentration (IC50) of 11 nM.
`CCNC(C)c1ccc(-c2c(O)ccc3[nH]c(=O)c4sccc4c23)cc1` (centres undefined) [US8962648, 385] showed a concentration for half-maximal inhibition (IC50) of 3.9 nM.
For `NCC1(c2ccc(-c3c(O)cc(Br)c4[nH]c(=O)c5sccc5c34)cc2)CC1` [US8962648, 1401] the value was 51 nM; for `CCC(c1ccc(-c2c(O)ccc3[nH]c(=O)c4sccc4c23)cc1)N(C)C` (centres undefined) [US8962648, 339], 1.9 nM; for `C[C@H](N)c1ccc(-c2c(O)ccc3[nH]c(=O)c4sccc4c23)cc1` [US8962648, 233], 0.81 nM.
For `CC(C)NCc1ccc(-c2c(O)ccc3[nH]c(=O)c4sccc4c23)cc1` [US8962648, 229] the value was 4.2 nM; for `CC[C@@H](N)c1ccc(-c2c(O)cc(C)c3[nH]c(=O)c4sccc4c23)cc1` [US8962648, 1157], 18 nM; for `C[C@@H](N)c1ccc(-c2c(O)cc(Br)c3[nH]c(=O)c4sccc4c23)cc1` [US8962648, 1123], 33 nM.
For `O=c1[nH]c2ccc(O)c(-c3ccc(CN4CCC(O)C4)c(F)c3)c2c2ccsc12` (centres undefined) [US8962648, 278] the value was 0.97 nM; for `Cc1cc(-c2c(O)ccc3[nH]c(=O)c4sccc4c23)ccc1NS(C)(=O)=O` [US8962648, 254], 3 nM.
Compound `CCN(CC)CCNCCCOc1ccc(-c2c(OC)ccc3[nH]c(=O)c4sccc4c23)cc1` [US8962648, 145] had a concentration for half-maximal inhibition (IC50) of 47 nM.
For `Cc1cc(O)c(-c2ccc(C(C)(C)N)cc2)c2c1[nH]c(=O)c1sccc12` [US8962648, 1330] the value was 8.3 nM.
For `CC(NS(C)(=O)=O)c1ccc(-c2c(O)ccc3[nH]c(=O)c4sccc4c23)cc1` (centres undefined) [US8962648, 347] the value was 3.7 nM and 2 nM; for `O=c1[nH]c2ccc(O)c(-c3ccc4c(c3)CNCC4)c2c2ccsc12` [US8962648, 353], 2 nM; for `CNC[C@@H](C)c1ccc(-c2c(O)ccc3[nH]c(=O)c4sccc4c23)cc1` [US8962648, 1197], 2.8 nM.
With `NS(=O)(=O)c1ccc(-c2c(O)ccc3[nH]c(=O)c4sccc4c23)cc1` [US8962648, 65] the figure was 1.8 nM.
For `COc1ccc2[nH]c(=O)c3sccc3c2c1/C=C/CN1CCC(N)CC1` [US8962648, 152], the IC50 came out at 31 nM.
With `CCC(C#N)c1ccc(-c2c(O)ccc3[nH]c(=O)c4sccc4c23)cc1` (centres undefined) [US8962648, 1162] the figure was 13 nM; with `CN(C)CCc1ccc(-c2c(O)ccc3[nH]c(=O)c4sccc4c23)cc1F` [US8962648, 327], 1.9 nM.
With `CN[C@@H](C)c1ccc(-c2c(O)cc(Cl)c3[nH]c(=O)c4sccc4c23)cc1` [US8962648, 1087] the figure was 19 nM.

As usually defined, the IC50 is the concentration that inhibits the measured activity by half. Lower therefore signals greater potency in that assay.
